In ChEMBL document CHEMBL3045961, “Synthesis and evaluation of some pyrimidine analogs against toxoplasmosis” (Med Chem Res, 2008):
pIC50: −log10 of the molar value. Activity calls are given as the source filed them. The calls are words filed in the database; no cut-off is given here.

Experiments:
Toxoplasma gondii [1] = assay: Antiparasitic activity Toxoplasma gondii RH infected Swiss albino mouse assessed as decreased parasite movement in host peritoneal exudate at 0.25 mg, po administered 48 hr post-infection measured after 3 days by light microscopic analysis; type: functional, organism-based
Toxoplasma gondii [2] = assay: Antiparasitic activity Toxoplasma gondii RH infected Swiss albino mouse assessed as clear lymphocytes in host liver focal granuloma at 0.25 mg, po administered 48 hr post-infection measured after 3 days by haematoxylin and eosin staining relative to control; type: functional, organism-based
Toxoplasma gondii [3] = assay: Antiparasitic activity Toxoplasma gondii RH infected Swiss albino mouse assessed as parasite deformity in host peritoneal exudate at 0.25 mg, po administered 48 hr post-infection measured after 3 days by light microscopic analysis; type: functional, organism-based
[4] = molecular target: T1, Bifunctional dihydrofolate reductase-thymidylate synthase (Cryptosporidium parvum, UniProt Q27552); assay: Inhibition of Cryptosporidium parvum recombinant DHFR using dihydrofolate as substrate incubated for 5 min prior to substrate addition by spectrophotometric assay
T1 sequence (Q27552 whole entry): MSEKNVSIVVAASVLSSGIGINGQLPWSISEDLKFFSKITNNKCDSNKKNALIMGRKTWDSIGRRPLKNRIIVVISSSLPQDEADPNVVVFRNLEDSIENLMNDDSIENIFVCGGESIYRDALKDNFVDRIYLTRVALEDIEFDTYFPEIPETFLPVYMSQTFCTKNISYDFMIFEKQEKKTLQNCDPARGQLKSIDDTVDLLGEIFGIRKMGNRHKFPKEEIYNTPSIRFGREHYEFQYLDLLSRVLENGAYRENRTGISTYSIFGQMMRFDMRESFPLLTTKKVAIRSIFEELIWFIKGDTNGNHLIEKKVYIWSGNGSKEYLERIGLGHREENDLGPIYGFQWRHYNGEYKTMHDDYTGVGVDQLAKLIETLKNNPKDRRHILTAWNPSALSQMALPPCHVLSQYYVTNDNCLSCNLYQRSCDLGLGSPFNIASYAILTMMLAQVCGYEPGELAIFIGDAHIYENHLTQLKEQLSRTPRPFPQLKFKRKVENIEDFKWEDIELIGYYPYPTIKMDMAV

Toxoplasma gondii [5] = assay: Antiparasitic activity against Toxoplasma gondii RH infected Swiss albino mouse assessed as decrease in tachozyte count in spleen at 0.25 mg, po administered 48 hr post-infection measured after 3 days by Geimsa staining relative to control; type: functional, organism-based
Toxoplasma gondii [6] = assay: Antiparasitic activity Toxoplasma gondii RH infected Swiss albino mouse assessed as epethelioid granuloma in host spleen at 0.25 mg, po administered 48 hr post-infection measured after 3 days by haematoxylin and eosin staining relative to control; type: functional, organism-based
Toxoplasma gondii [7] = assay: Antiparasitic activity Toxoplasma gondii RH infected Swiss albino mouse assessed as clear mononuclear cells in host liver focal granuloma at 0.25 mg, po administered 48 hr post-infection measured after 3 days by haematoxylin and eosin staining relative to control; type: functional, organism-based
Toxoplasma gondii [8] = assay: Antiparasitic activity Toxoplasma gondii RH infected Swiss albino mouse assessed as decrease in host spleen necrosis at 0.25 mg, po administered 48 hr post-infection measured after 3 days by haematoxylin and eosin staining relative to control; type: functional, organism-based
Toxoplasma gondii [9] = assay: Antiparasitic activity Toxoplasma gondii RH infected Swiss albino mouse assessed as decrease in Toxoplasma antigen in host serum at 0.25 mg, po administered 48 hr post-infection measured after 3 days by Co-A test relative to control; type: functional, organism-based
Toxoplasma gondii [10] = assay: Antiparasitic activity against Toxoplasma gondii RH infected Swiss albino mouse assessed as decrease in tachozyte count in liver at 0.25 mg, po administered 48 hr post-infection measured after 3 days by Geimsa staining relative to control; type: functional, organism-based
Toxoplasma gondii [11] = assay: Antiparasitic activity Toxoplasma gondii RH infected Swiss albino mouse assessed as decrease in host liver necrosis at 0.25 mg, po administered 48 hr post-infection measured after 3 days by haematoxylin and eosin staining relative to control; type: functional, organism-based
Toxoplasma gondii [12] = assay: Antiparasitic activity Toxoplasma gondii RH infected Swiss albino mouse assessed as decrease in host lung congestion at 0.25 mg, po administered 48 hr post-infection measured after 3 days by haematoxylin and eosin staining relative to control; type: functional, organism-based
Toxoplasma gondii [13] = assay: Antiparasitic activity Toxoplasma gondii RH infected Swiss albino mouse assessed as decrease in interstitial pneumonia at 0.25 mg, po administered 48 hr post-infection measured after 3 days by haematoxylin and eosin staining relative to control; type: functional, organism-based
Toxoplasma gondii [14] = assay: Antiparasitic activity Toxoplasma gondii RH infected Swiss albino mouse assessed as increase in host spleen red pulp at 0.25 mg, po administered 48 hr post-infection measured after 3 days by haematoxylin and eosin staining relative to control; type: functional, organism-based
Toxoplasma gondii [15] = assay: Antiparasitic activity Toxoplasma gondii RH infected Swiss albino mouse assessed as megakaryocytes in host spleen at 0.25 mg, po administered 48 hr post-infection measured after 3 days by haematoxylin and eosin staining relative to control; type: functional, organism-based
Dihydrofolate reductase = molecular target: T2, Dihydrofolate reductase (Homo sapiens, UniProt P00374); assay: Inhibition of Homo sapiens (human) dihydrofolate reductase using dihydrofolate as substrate incubated for 5 min prior to substrate addition by spectrophotometric assay
T2 sequence (P00374 whole entry): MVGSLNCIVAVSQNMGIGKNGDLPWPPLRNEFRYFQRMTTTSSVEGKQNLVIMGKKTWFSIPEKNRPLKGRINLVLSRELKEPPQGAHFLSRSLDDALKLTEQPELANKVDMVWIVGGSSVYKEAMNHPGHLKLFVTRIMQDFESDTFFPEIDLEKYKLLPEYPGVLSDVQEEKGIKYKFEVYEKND

Toxoplasma gondii [16] = assay: Antiparasitic activity Toxoplasma gondii RH infected Swiss albino mouse assessed as decrease in host spleen white pulp at 0.25 mg, po administered 48 hr post-infection measured after 3 days by haematoxylin and eosin staining relative to control; type: functional, organism-based
Toxoplasma gondii [17] = assay: Antiparasitic activity Toxoplasma gondii RH infected Swiss albino mouse assessed as extramedullary hematopoiesis in host spleen at 0.25 mg, po administered 48 hr post-infection measured after 3 days by haematoxylin and eosin staining relative to control; type: functional, organism-based
Toxoplasma gondii [18] = assay: Antiparasitic activity Toxoplasma gondii RH infected Swiss albino mouse assessed as decrease in tachyzoites end tapering in host peritoneal exudate at 0.25 mg, po administered 48 hr post-infection measured after 3 days by scanning electron microscopic analysis; type: functional, organism-based
Toxoplasma gondii [19] = assay: Antiparasitic activity Toxoplasma gondii RH infected Swiss albino mouse assessed as disorganised parasite conoid in host peritoneal exudate at 0.25 mg, po administered 48 hr post-infection measured after 3 days by scanning electron microscopic analysis; type: functional, organism-based
Toxoplasma gondii [20] = assay: Antiparasitic activity Toxoplasma gondii RH infected Swiss albino mouse assessed as elongated tachyzoites in host peritoneal exudate at 0.25 mg, po administered 48 hr post-infection measured after 3 days by scanning electron microscopic analysis; type: functional, organism-based
[21] = molecular target: T3, Bifunctional dihydrofolate reductase-thymidylate synthase (Cryptosporidium parvum) (UniProt Q27552); assay: Ratio of trimethorpin IC50 to compound IC50 for Cryptosporidium parvum recombinant DHFR
T3 sequence (whole entry): T1 sequence (Q27552 whole entry)

Toxoplasma gondii [22] = assay: Antiparasitic activity Toxoplasma gondii RH infected Swiss albino mouse assessed as loss of parasite crescent shape in host peritoneal exudate at 0.25 mg, po administered 48 hr post-infection measured after 3 days by scanning electron microscopic analysis; type: functional, organism-based
Toxoplasma gondii [23] = assay: Antiparasitic activity Toxoplasma gondii RH infected Swiss albino mouse assessed as multiple deep ridged parasite surface in host peritoneal exudate at 0.25 mg, po administered 48 hr post-infection measured after 3 days by scanning electron microscopic analysis; type: functional, organism-based

Row | SMILES | Activity (Toxoplasma gondii [1]) | Activity (Toxoplasma gondii [2]) | Activity (Toxoplasma gondii [3]) | pIC50 [4] | Activity (Toxoplasma gondii [5]) | Activity (Toxoplasma gondii [6]) | Activity (Toxoplasma gondii [7]) | Activity (Toxoplasma gondii [8]) | Activity (Toxoplasma gondii [9]) | Activity (Toxoplasma gondii [10]) | Activity (Toxoplasma gondii [11]) | Activity (Toxoplasma gondii [12]) | Activity (Toxoplasma gondii [13]) | Activity (Toxoplasma gondii [14]) | Activity (Toxoplasma gondii [15]) | pIC50 (Dihydrofolate reductase) | Activity (Toxoplasma gondii [16]) | Activity (Toxoplasma gondii [17]) | further results
1 | CCOC(=O)C1=C(C)NC(=S)NC1c1ccccc1OC (stereo not given) | inactive | inactive | inactive | 5.62 | inactive | inactive | inactive | inactive | inactive | inactive | inactive | inactive | inactive | inactive | inactive | 5.72 | inactive | inactive | –
2 | CC(=O)C1=C(C)N=C(SCCC(=O)O)NC1c1ccccc1 (stereo not given) | Active | Active | Active | 7.57 | Active | Active | Active | Active | Active | Active | Active | inactive | Active | Active | inactive | 8.89 | Active | inactive | Activity (Toxoplasma gondii [18]): Active; Activity (Toxoplasma gondii [19]): Active; Activity (Toxoplasma gondii [20]): Active; Ratio IC50 [21]: 40; Activity (Toxoplasma gondii [22]): Active
3 | CC(=O)C1=C(C)NC(=S)NC1c1cccc(O)c1 (stereo not given) | inactive | inactive | inactive | 5.12 | inactive | inactive | inactive | inactive | inactive | inactive | inactive | inactive | inactive | inactive | inactive | 5.03 | inactive | inactive | –
4 | CCOC(=O)C1=C(C)N=C(SCC(=O)c2ccc(Cl)c([N+](=O)[O-])c2)NC1c1ccccc1 (stereo not given) | inactive | inactive | inactive | 5.64 | inactive | inactive | inactive | inactive | inactive | inactive | inactive | inactive | inactive | inactive | inactive | 5.52 | inactive | inactive | –
5 | CCOC(=O)C1=C(C)NC(=S)NC1/C=C\c1ccccc1 (stereo not given) | inactive | inactive | inactive | 5.68 | inactive | inactive | inactive | inactive | inactive | inactive | inactive | inactive | inactive | inactive | inactive | 5.54 | inactive | inactive | –
6 | CCOC(=O)CSC1=NC(c2ccccc2OC)C(C(=O)OCC)=C(C)N1 (stereo not given) | inactive | inactive | inactive | 5.29 | inactive | inactive | inactive | inactive | inactive | inactive | inactive | inactive | inactive | inactive | inactive | 5.14 | inactive | inactive | –
7 | CCOC(=O)C1=C(C)NC(S/C(=C\c2ccc(OC)cc2)C(=O)OCC)=NC1c1ccccc1 (stereo not given) | Active | Active | Active | 7.42 | Active | inactive | Active | Active | Active | Active | Active | inactive | Active | Active | Active | 8.00 | Active | Active | Ratio IC50 [21]: 40; Activity (Toxoplasma gondii [23]): Active
8 | COc1cc(Cc2cnc(N)nc2N)cc(OC)c1OC [TRIMETHOPRIM] | – | – | – | 5.40 | – | – | – | – | – | – | – | – | – | – | – | – | – | – | –
9 | CCOC(=O)C1=C(C)NC(=S)NC1c1ccccc1 (stereo not given) | inactive | inactive | inactive | 5.33 | inactive | inactive | inactive | inactive | inactive | inactive | inactive | inactive | inactive | inactive | inactive | 6.24 | inactive | inactive | –
10 | CCOC(=O)CSC1=NC(c2ccccc2)C(C(=O)OCC)=C(C)N1 (stereo not given) | inactive | inactive | inactive | 5.49 | inactive | inactive | inactive | inactive | inactive | inactive | inactive | inactive | inactive | inactive | inactive | 6.08 | inactive | inactive | –
